Reference: patent publication US12203099B2, “Methods of expanding cholangiocytes” (Cambridge Enterprise Limited, priority 2017, dated 2025)

Tested on: ECOs
Test: Response to secretin and somatostatin (organoid diameter)
Format: cell-based, human
Settings: ECOs exposed to secretin, compared to untreated controls
Experimental: Responses to secretin and somatostatin were assessed as described in Sapazoits F, et al. (Biotechnol. 2015 1-11).
We then further characterized ECOs by focusing on their function following long-term culture (20 passages). The biliary epithelium regulates the homeostasis of bile through the transport of ions, water and bile acids. The secretory capacity of ECOs was interrogated using Rhodamine-123, a fluorescent substrate for the cholangiocyte surface glycoprotein Multidrug Resistance protein-1 (MDR1) (FIGS. 10 and 11). […]. […] The response of ECOs to secretin and somatostatin was also assessed. Secretin promotes water secretion, distending the bile duct lumen, while somatostatin negates the effects of secretin.

secretin
organoid diameter: increased their diameter compared to untreated controls
